Data from the Kinase Knowledgebase extract (Sharma et al. 2016).

Molecular target: PIK3CB;PIK3CG;PIK3CD;PIK3CA (human) (UniProt P48736)
Assay: Enzyme Assay

| Compound | IC50 [nM] |
| --- | --- |
| O=C(c1nn(C2CCCCC2)c2c1CS(=O)(=O)c1ccsc1-2)N1CCOCC1 | 212 |
| O=C(c1nn(C2CCCCC2)c2c1CS(=O)(=O)c1ncccc1-2)N1CCOCC1 | 437 |
| O=C(c1nn(-c2cccc(CN3CCC(F)(F)CC3)c2)c2c1CS(=O)(=O)c1ccccc1-2)N1CCOCC1 | 560 |
| O=C(c1nn(-c2cccc(-c3ccoc3)c2)c2c1CS(=O)(=O)c1ccccc1-2)N1CCOCC1 | 826 |
| O=C(c1nn(-c2ccccc2)c2c1CS(=O)(=O)c1c(Br)cccc1-2)N1CCOCC1 | 494 |
| O=C(c1nn(-c2ccccc2)c2c1CS(=O)(=O)c1ccccc1-2)N1CCOC(CO)C1 (stereo not drawn) | 6530 |
| O=C(c1nn(-c2ccc(CN3CCOCC3)cc2)c2c1CS(=O)(=O)c1cc(F)ccc1-2)N1CCOCC1 | 202 |
| Cc1nnc(-c2cccc(-n3nc(C(=O)N4CCOCC4)c4c3-c3ccccc3S(=O)(=O)C4)c2)o1 | 1200 |
| O=C(c1nn(-c2ccccc2)c2c1C(Cc1ccccc1)S(=O)(=O)c1ccccc1-2)N1CCOCC1 (stereo not drawn) | 2480 |
| COc1cccc2c1S(=O)(=O)Cc1c(C(=O)N3CCOCC3)nn([C@H]3CCCN(CCN4CC(F)(F)C4)C3)c1-2 | 40 |
| Cc1ccc(F)cc1-n1nc(C(=O)N2CCOCC2)c2c1-c1ccccc1S(=O)(=O)C2 | 4200 |
| Cc1nnc(-c2cccc(-n3nc(C(=O)N4CCOCC4)c4c3-c3ccccc3S(=O)(=O)C4)c2)s1 | 661 |
| O=C(c1nn(CC2CCOCC2)c2c1CS(=O)(=O)c1ccccc1-2)N1CCOCC1 | 789 |
| O=C(c1nn([C@H]2CCCN(CCn3ccnc3)C2)c2c1CS(=O)(=O)c1ccccc1-2)N1CCOCC1 | 5600 |
| O=C(c1nn(-c2ccc(Cl)cc2)c2c1CS(=O)(=O)c1ccccc1-2)N1CCOCC1 | 895 |
| O=C(c1nn([C@@H]2CCN(CCC3CCOCC3)C2)c2c1CS(=O)(=O)c1c(F)cccc1-2)N1CCOCC1 | 1690 |
| O=C(c1nn(-c2ccc(Br)cc2)c2c1CS(=O)(=O)c1ccccc1-2)N1CCOCC1 | 1120 |
| COc1ccc2c(c1)-c1c(c(C(=O)N3CCOCC3)nn1-c1ccccc1)CS2(=O)=O | 3350 |
| O=C(c1nn(-c2cccc(F)c2)c2c1CS(=O)(=O)c1ccccc1-2)N1CCOCC1 | 739 |
| O=C(c1nn(-c2cccc(-c3cnn(CCN4CCOCC4)c3)c2)c2c1CS(=O)(=O)c1ccccc1-2)N1CCOCC1 | 338 |

| Compound | IC50 [nM] |
| --- | --- |
| O=C(c1nn(-c2ccc(CN3CCCCC3)nc2)c2c1CS(=O)(=O)c1ccccc1-2)N1CCOCC1 | 370 |
| COc1cccc2c1S(=O)(=O)Cc1c(C(=O)N3CCOCC3)nn(-c3ccccc3)c1-2 | 459 |
| COc1ccc(-n2nc(C(=O)N3CCOCC3)c3c2-c2ccccc2S(=O)(=O)C3)cn1 | 2200 |
| O=C(Nc1cccnc1)c1cccc(-n2nc(C(=O)N3CCOCC3)c3c2-c2ccccc2S(=O)(=O)C3)c1 | 926 |
| O=C(c1nn(-c2ccccc2)c2c1CS(=O)(=O)c1ncccc1-2)N1CCOCC1 | 530 |
| O=C(CCN1CCC[C@H](n2nc(C(=O)N3CCOCC3)c3c2-c2ccccc2S(=O)(=O)C3)C1)N1CCC(F)(F)C1 | 41 |
| O=C(c1nn(-c2cccc(Nc3ccccc3)c2)c2c1CS(=O)(=O)c1ccccc1-2)N1CCOCC1 | 2700 |
| Cn1cc(-c2cccc(-n3nc(C(=O)N4CCOCC4)c4c3-c3ccccc3S(=O)(=O)C4)c2)cn1 | 184 |
| O=C(c1nn(C2CN3CCC2CC3)c2c1CS(=O)(=O)c1ccccc1-2)N1CCOCC1 (stereo not drawn) | 10200 |
| COc1ccc(Cn2nc(C(=O)N3CCOCC3)c3c2-c2ccccc2S(=O)(=O)C3)cc1 | 459 |
| CC1CN(C(=O)c2nn(-c3ccccc3)c3c2CS(=O)(=O)c2ccccc2-3)CCO1 (stereo not drawn) | 2160 |
| CN1CCCC(Cn2nc(C(=O)N3CCOCC3)c3c2-c2ccccc2S(=O)(=O)C3)C1 (stereo not drawn) | 6050 |
| O=C(O)c1nn(-c2ccc(CN3CCOCC3)cc2)c2c1CS(=O)(=O)c1ccccc1-2 | 4040 |
| Nc1ccc2c(c1)-c1c(c(C(=O)N3CCOCC3)nn1-c1ccccc1)CS2(=O)=O | 368 |
| COCCN(C)CCN1CCC[C@H](n2nc(C(=O)N3CCOCC3)c3c2-c2ccccc2S(=O)(=O)C3)C1 | 45 |
| Cn1nc(C(=O)N2CCOCC2)c2c1-c1ccccc1S(=O)(=O)C2 | 1750 |
| COCN1c2c(C(=O)N3CCOCC3)nn(-c3ccccc3)c2-c2ccccc2S1(=O)=O | 11700 |
| O=C(c1nn(-c2ccc(CNC3CCOCC3)cc2)c2c1CS(=O)(=O)c1ccccc1-2)N1CCOCC1 | 107 |
| CC(C)CCOC1CCN(Cc2cccc(-n3nc(C(=O)N4CCOCC4)c4c3-c3ccccc3S(=O)(=O)C4)c2)C1 (stereo not drawn) | 389 |
| COCCNc1ccc2c(c1)-c1c(c(C(=O)N3CCOCC3)nn1-c1ccccc1)CS2(=O)=O | 902 |

| Compound | IC50 [nM] |
| --- | --- |
| O=C(c1nn(C2CCN(CCC3CCOCC3)C2)c2c1CS(=O)(=O)c1c(F)cccc1-2)N1CCOCC1 (stereo not drawn) | 21 |
| O=C(c1nn(-c2ccc(CN3CCCC(F)(F)C3)cc2)c2c1CS(=O)(=O)c1ccccc1-2)N1CCOCC1 | 355 |
| CC(C)Cn1nc(C(=O)N2CCOCC2)c2c1-c1ccccc1S(=O)(=O)C2 | 960 |
| O=C(c1nn(C2CCOCC2)c2c1CS(=O)(=O)c1c(F)cccc1-2)N1CCOCC1 | 1030 |
| CC(C)(CN1CCOCC1)c1ccc(-n2nc(C(=O)N3CCOCC3)c3c2-c2ccccc2S(=O)(=O)C3)cc1 | 341 |
| O=C(c1nn(N2CCOCC2)c2c1C(F)S(=O)(=O)c1ccccc1-2)N1CCOCC1 (stereo not drawn) | 9800 |
| O=C(c1nn(CCc2ccccc2)c2c1CS(=O)(=O)c1ccccc1-2)N1CCOCC1 | 1440 |
| O=C(c1nn(-c2ccc(CN3CCC(F)(F)CC3)cc2)c2c1CS(=O)(=O)c1ccccc1-2)N1CCOCC1 | 230 |
| O=C(c1nn(CC2CCCCC2)c2c1CS(=O)(=O)c1ccccc1-2)N1CCOCC1 | 509 |
| O=C(c1nn(C2CCN(CCN3CC[C@@H](F)C3)C2)c2c1CS(=O)(=O)c1ccccc1-2)N1CCOCC1 (stereo partly drawn) | 120 |
| O=C(c1nn(-c2cccc(OCCn3cccn3)c2)c2c1CS(=O)(=O)c1ccccc1-2)N1CCOCC1 | 445 |
| O=C(c1nn(CCCO)c2c1CS(=O)(=O)c1ccccc1-2)N1CCOCC1 | 2250 |
| O=C(c1nn(C2CCCCC2)c2c1CS(=O)(=O)c1sccc1-2)N1CCOCC1 | 302 |
| O=C(c1cccc(-n2nc(C(=O)N3CCOCC3)c3c2-c2ccccc2S(=O)(=O)C3)c1)N1CCCCC1 | 182 |
| Cc1ccc2c(c1)-c1c(c(C(=O)N3CCOCC3)nn1-c1ccccc1)CS2(=O)=O | 1500 |
| CN1CCN(C(=O)c2ccc3c(c2)-c2c(c(C(=O)N4CCOCC4)nn2-c2ccccc2)CS3(=O)=O)CC1 | 4280 |
| O=C(c1nn(C2CCCN(CCN3CC(F)(F)C3)C2)c2c1CS(=O)(=O)c1c(F)cccc1-2)N1CCOCC1 (stereo not drawn) | 38 |
| O=C(c1nn(C2CCCN(CCn3ccnc3)C2)c2c1CS(=O)(=O)c1ccccc1-2)N1CCOCC1 (stereo not drawn) | 52 |
| O=C(c1nn(-c2ccccc2)c2c1CS(=O)(=O)c1ccccc1-2)N1CCOCC1 | 244 |

Continued, values first:

| IC50 [nM] | Compound |
| --- | --- |
| 13 | O=C(c1nn([C@H]2CCCN(C3CCOCC3)C2)c2c1CS(=O)(=O)c1c(F)cccc1-2)N1CCOCC1 |
| 104 | O=C(c1nn([C@@H]2CCCN(C3CCOCC3)CC2)c2c1CS(=O)(=O)c1ccccc1-2)N1CCOCC1 |
| 21 | O=C(c1nn(C2CCCN(CC3CCOC3)C2)c2c1CS(=O)(=O)c1c(F)cccc1-2)N1CCOCC1 (stereo not drawn) |
| 80 | O=C(c1nn([C@H]2CCCN(C3CCOCC3)C2)c2c1CS(=O)(=O)c1ccccc1-2)N1CCOCC1 |
| 1900 | O=C(c1nn(C2CCCNCC2)c2c1CS(=O)(=O)c1ccccc1-2)N1CCOCC1 (stereo not drawn) |
| 24 | COc1ccc2c(c1)S(=O)(=O)Cc1c(C(=O)N3CCOCC3)nn([C@H]3CCCN(C4CCCOC4)C3)c1-2 (stereo partly drawn) |
| 18 | CN1CCCC(N2CCC[C@H](n3nc(C(=O)N4CCOCC4)c4c3-c3ccccc3S(=O)(=O)C4)C2)C1 (stereo partly drawn) |
| 24 | COc1ccc2c(c1)S(=O)(=O)Cc1c(C(=O)N3CCOCC3)nn([C@H]3CCCN(CCN4CCOCC4)C3)c1-2 |
| 7970 | O=C(c1nn([C@@H]2CCCN(CCF)C2)c2c1CS(=O)(=O)c1ccccc1-2)N1CCOCC1 |
| 1480 | COCCN1CCC(n2nc(C(=O)N3CCOCC3)c3c2-c2ccccc2S(=O)(=O)C3)C1 (stereo not drawn) |
| 32 | O=C(c1nn([C@H]2CCCN(CCN3CC[C@@H](F)C3)C2)c2c1CS(=O)(=O)c1ccccc1-2)N1CCOCC1 |
| 353 | O=C(c1nn(C2CCOC2)c2c1CS(=O)(=O)c1c(F)cccc1-2)N1CCOCC1 (stereo not drawn) |
| 890 | O=C(c1nn(C2CCOC2)c2c1CS(=O)(=O)c1ccccc1-2)N1CCOCC1 (stereo not drawn) |
| 353 | O=C(c1nn(C2CCN(CC3CCOC3)C2)c2c1CS(=O)(=O)c1ccccc1-2)N1CCOCC1 (stereo not drawn) |
| 735 | O=C(CC1CCCCC1)N1CCC[C@H](n2nc(C(=O)N3CCOCC3)c3c2-c2ccccc2S(=O)(=O)C3)C1 |
| 1500 | O=C(c1nn([C@H]2CCCN(C(=O)C3CCOCC3)C2)c2c1CS(=O)(=O)c1ccccc1-2)N1CCOCC1 |
| 95 | O=C(c1nn(C2CN(CCC3CCOCC3)C2)c2c1CS(=O)(=O)c1ccccc1-2)N1CCOCC1 |
| 261 | COCC(=O)N1CCC[C@H](n2nc(C(=O)N3CCOCC3)c3c2-c2ccccc2S(=O)(=O)C3)C1 |
| 72 | CN(C)CCN1CCCC(n2nc(C(=O)N3CCOCC3)c3c2-c2ccccc2S(=O)(=O)C3)C1 (stereo not drawn) |
| 20 | CN1CCC(OCCN2CCC[C@H](n3nc(C(=O)N4CCOCC4)c4c3-c3ccccc3S(=O)(=O)C4)C2)CC1 |
| 136 | O=C(c1nn(C2CCCCC2)c2c1CS(=O)(=O)c1ccccc1-2)N1CCOCC1 |
| 362 | O=C(c1nn(C2CCCC(C(=O)N3CCCCC3)C2)c2c1CS(=O)(=O)c1ccccc1-2)N1CCOCC1 (stereo not drawn) |
| 468 | O=C(c1nn(C2CCCN(c3ccccc3)C2)c2c1CS(=O)(=O)c1ccccc1-2)N1CCOCC1 (stereo not drawn) |
| 105 | CC(=O)NCCN1CCC[C@H](n2nc(C(=O)N3CCOCC3)c3c2-c2ccccc2S(=O)(=O)C3)C1 |
| 73 | NCCN1CCC[C@H](n2nc(C(=O)N3CCOCC3)c3c2-c2ccccc2S(=O)(=O)C3)C1 |
| 205 | O=C(c1nn(C2CCCC2)c2c1CS(=O)(=O)c1ccccc1-2)N1CCOCC1 |
| 6 | O=C(c1nn([C@H]2CCCN(CCC3CCOCC3)C2)c2c1CS(=O)(=O)c1c(F)cccc1-2)N1CCOCC1 |
| 25 | O=C(c1nn([C@H]2CCCN(C3CCCNC3)C2)c2c1CS(=O)(=O)c1ccccc1-2)N1CCOCC1 (stereo partly drawn) |
| 80 | O=C1CCCN1CCN1CCC[C@H](n2nc(C(=O)N3CCOCC3)c3c2-c2ccccc2S(=O)(=O)C3)C1 |
